The numbers were not newly measured in article PMC5693832 (Ophthalmology and Therapy, 2017), which cites them from elsewhere.

The subject of series [1] is IOP in healthy Japanese subjects. To be noted: 0.024% once daily for 14 days.
Series [2] concerns diurnal IOP in POAG or OHT patients. The following applies: 0.006% to 0.040%, 28 days.
For series [3], the system named is IOP over a 24-h diurnal time period. The following applies: for IOP reduction over the 24 h period, in words: 24-h diurnal period.
Series [4] has as its system IOP in Japanese subjects with POAG or OHT. To be noted: 0.024% every evening.
The test system of another series is IOP. The following applies: 0.024%, summary of the clinical trials.
For another series, the system named is platelets. The following applies: humans.

Take `O=C(CCC/C=C\C[C@@H]1[C@@H](CC[C@@H](O)CCc2ccccc2)[C@H](O)C[C@@H]1O)OCCCCO[N+](=O)[O-]` [latanoprostene bunod]: in series [1], the “most common adverse events” value was “punctate keratitis and conjunctival hyperemia”; the “severity of adverse events” value was “mild”. Moreover, in series [2], the “adverse events (pupil dilation, blurred vision)” value is “neither pupil dilation nor blurred vision were reported as adverse events” and the “efficacy (change from baseline mean diurnal IOP), dose relation” value is on record as “dose-dependent”. Further, the “IOP reduction over the 24 h period, in words” value in series [3] is recorded as “sustained IOP reduction during the 24 h period”. Moreover, the “post treatment mean IOP (SD), nighttime” value in series [3] (nighttime, baseline 25.7 (3.8) mmHg) is reported as 23.2 (3.4) mmHg. In addition, the “IOP (SD) at 52 weeks” value in series [4] is reported as 14.4 (2.7) mmHg. In addition, the “IOP reduction by 52 weeks from baseline” value in series [4] (baseline 19.6 (2.9) mmHg) is 26%. The “additional IOP reduction versus latanoprost and timolol monotherapy” value with IOP was 1–2 mmHg.
For the compound `CC(C)(C)NC[C@H](O)COc1nsnc1N1CCOCC1` [timolol], the “IOP reduction over the 24 h period, in words” value in series [3] is “primarily effective during the daytime”.
With `CC(=O)Oc1ccccc1C(=O)Oc1cccc(CO[N+](=O)[O-])c1` [NCX 4016, 2-(acetyloxy)benzoic acid-3-[(nitrooxy)methyl]phenyl ester], the “NO release after oral administration” value in the series on platelets is on record as “capable of releasing NO”.
